Results taken from patent publication US20210199657A1, “I[…] AND USE THEREOF” (priority 2016, published 2021).

Tests used:
[1] = test system: negative pool (serum of individuals not suffering from tuberculosis); test: ELISA of peptides on negative pool of samples; type: binding, human; conditions: 450 nm
[2] = test system: antibodies contained in pools of serums from patients suffering from active tuberculosis; test: ELISA screening of peptides on pools of serums from patients with active TB (ratio R); conditions: for ratio R: for 3 of the 4 serums tested
Procedure: In order to determine which peptides are of interest, a ratio R is calculated, the ratio R being the normalized measurement value of the immune complex formation, relative to the respective background noises of the serums and components used to detect the immune complexes, to, or divided by, the normalized measurement value obtained from the sample derived from a healthy individual relative to the respective background noises of the serums and components used to detect the immune complexes.
In order to determine the immunogenicity of the peptides, they are tested using the following ELISA test:
The peptides are fixed on a Maxisorp (high binding) plate: Incubation overnight at 4° C., concentration of the protein in μg/ml from 20 to 50.
The wells are rinsed with 300 μL of phosphate buffered saline (PBS).
The “wells” are blocked for 2 hours at ambient temperature (19° C.-25° C.) with 200 μL of bovine serum albumin (BSA) 2% and 0.01% of Tween 20.
The wells are rinsed with 200 μL of PBS.
One deposits 100 μL of serums from patients suffering from active TA diluted at 1/100th in blocking solution and incubates for one hour at 37° C.
Perform 3 washes (300 μL) PBS-Tween 20 (0.05%).
One adds 100 μL of antibodies conjugated with peroxidase, diluted at 1/20,000 with blocking solution and incubates for 1 h at 37° C.
One adds 100 μL of 3,3′,5,5′-tetramethylbenzidine (TMB) and incubates for 20 minutes in the dark.
One deposits 50 μL of sulfuric acid at 1N.
A spectrophotometer is used at 450 nm to read the quantity of TMB converted by the peroxidase (indicative of the formation of an immune complex between the peptides and the antibodies contained in the serum).

Row | Sequence | OD Negative pool [1] | ratio R [2] | ratio ([2]; for both pools of patients) | Ratio Positive pool 1 ([2]; positive pool 1) | Ratio Positive pool 2 ([2]; positive pool 2)
1 | CNNGDPICSDGNRWR (derived from Rv3452) [Peptide D7] | 0.303 | greater than 1.5 | > 1.5 | 1.7 | 1.7
2 | TAACPDAEWFARGR (TAACPDAEVVFARGR; derived from Rv2301) [Peptide Z1] |  | greater than 1.5 |  |  | 
3 | DADARVAVPRRDDL (DADARVAVPGRRDDL; derived from LipW) [Peptide W7] |  | greater than 1.5 |  |  | 
